Test results taken from ChEMBL document CHEMBL3352091, “Natural product-based design, synthesis and biological evaluation of anthra[2,1-d]thiazole-6,11-dione derivatives from rhein as novel antitumour agents” (Eur J Med Chem, 2014).

How the values were obtained:
HeLa [1] = experiment: Antitumor activity against human HeLa cells after 3 days by SRB assay; type: functional, cell-based; conditions: 72 h
A549 [2] = experiment: Antitumor activity against human A549 cells after 3 days by SRB assay; type: functional, cell-based; conditions: A549, 72 h
HeLa [3] = experiment: Potency index, ratio of IC50 for rhein to IC50 for test compound against human HeLa cells after 3 days by SRB assay; type: functional
A549 [4] = experiment: Potency index, ratio of IC50 for rhein to IC50 for test compound against human A549 cells after 3 days by SRB assay; type: functional

| SMILES | IC50 (HeLa [1]) [µM] | IC50 (A549 [2]) [µM] | Ratio IC50 (HeLa [3]) | Ratio IC50 (A549 [4]) |
| --- | --- | --- | --- | --- |
| O=C1c2c(O)cccc2C(=O)c2c1c(O)cc1nc(N3CCCCC3)sc21 | 55.8 | > 100 | – | – |
| CC1CCN(c2nc3cc(O)c4c(c3s2)C(=O)c2cccc(O)c2C4=O)CC1 | 60.4 | 66 | – | – |
| CC(C)N(c1nc2cc(O)c3c(c2s1)C(=O)c1cccc(O)c1C3=O)C(C)C | 118 | > 100 | – | – |
| CCN(CC)c1nc2cc(O)c3c(c2s1)C(=O)c1cccc(O)c1C3=O | 86.7 | 108 | – | – |
| O=C1c2c(O)cccc2C(=O)c2c1c(O)cc1nc(N3CCN(C4CC4)CC3)sc21 | 58.1 | 65.7 | – | – |
| CCOC(=O)N1CCN(c2nc3cc(O)c4c(c3s2)C(=O)c2cccc(O)c2C4=O)CC1 | 68.4 | 54.8 | – | – |
| O=C1c2c(O)cccc2C(=O)c2c1c(O)cc1nc(N3CCN(CCN4CCCC4)CC3)sc21 | 81.1 | 70.3 | – | – |
| O=C1c2c(O)cccc2C(=O)c2c1c(O)cc1nc(N3CCN(CCN4CCCCC4)CC3)sc21 | 86.9 | 46.4 | – | – |
| CC1CCN(CCN2CCN(c3nc4cc(O)c5c(c4s3)C(=O)c3cccc(O)c3C5=O)CC2)CC1 | 82.1 | 38.2 | – | – |
| O=C1c2c(O)cccc2C(=O)c2c1c(O)cc1nc(N3CCN(CCN4CCOCC4)CC3)sc21 | > 100 | > 100 | – | – |
| CCCCN(CCCC)CCN1CCN(c2nc3cc(O)c4c(c3s2)C(=O)c2cccc(O)c2C4=O)CC1 | > 100 | 57.1 | – | – |
| CCN(CC)CCN1CCN(c2nc3cc(O)c4c(c3s2)C(=O)c2cccc(O)c2C4=O)CC1 | > 100 | > 100 | – | – |
| CN(C)CCN1CCN(c2nc3cc(O)c4c(c3s2)C(=O)c2cccc(O)c2C4=O)CC1 | > 100 | 32.8 | – | – |
| CC(C)N(CCN1CCN(c2nc3cc(O)c4c(c3s2)C(=O)c2cccc(O)c2C4=O)CC1)C(C)C | > 100 | > 100 | – | – |
| CCN1CCN(CCN2CCN(c3nc4cc(O)c5c(c4s3)C(=O)c3cccc(O)c3C5=O)CC2)CC1 | 71.3 | 23.4 | – | – |
| CN1CCN(CCN2CCN(c3nc4cc(O)c5c(c4s3)C(=O)c3cccc(O)c3C5=O)CC2)CC1 | 80.1 | 24.2 | – | – |
| CC(C)N1CCN(CCN2CCN(c3nc4cc(O)c5c(c4s3)C(=O)c3cccc(O)c3C5=O)CC2)CC1 | > 100 | 54 | – | – |
| O=C(O)c1cc(O)c2c(c1)C(=O)c1cccc(O)c1C2=O [RHEIN] | 92.2 | 95.8 | – | – |

These reach a lower IC50 (HeLa [1]). Values come first.

| IC50 (HeLa [1]) [µM] | IC50 (A549 [2]) [µM] | SMILES | Ratio IC50 (HeLa [3]) | Ratio IC50 (A549 [4]) |
| --- | --- | --- | --- | --- |
| 44.8 | 148 | O=C1c2c(O)cccc2C(=O)c2c1c(O)cc1nc(N3CCCC3)sc21 | – | – |
| 41 | 39.4 | O=C1c2c(O)cccc2C(=O)c2c1c(O)cc1nc(N3CCCCCC3)sc21 | – | – |
| 30.6 | 45.9 | CN(CCO)c1nc2cc(O)c3c(c2s1)C(=O)c1cccc(O)c1C3=O | – | – |
| 30.3 | 33.4 | O=C1c2c(O)cccc2C(=O)c2c1c(O)cc1nc(N3CCOCC3)sc21 | – | – |
| 27.4 | 20.2 | CN1CCN(c2nc3cc(O)c4c(c3s2)C(=O)c2cccc(O)c2C4=O)CC1 | – | – |
| 26.9 | 21.1 | O=C1c2c(O)cccc2C(=O)c2c1c(O)cc1nc(N3CCCC(O)C3)sc21 (centres undefined) | – | – |
| 23.2 | 30.4 | CN(CC(O)CO)c1nc2cc(O)c3c(c2s1)C(=O)c1cccc(O)c1C3=O (centres undefined) | – | – |
| 19.7 | 15.2 | O=CN1CCCN(c2nc3cc(O)c4c(c3s2)C(=O)c2cccc(O)c2C4=O)CC1 | – | – |
| 16.7 | 19.6 | O=C1c2c(O)cccc2C(=O)c2c1c(O)cc1nc(N3CCCCC3CCO)sc21 (centres undefined) | – | – |
| 14.8 | 15 | CC(C)N1CCN(c2nc3cc(O)c4c(c3s2)C(=O)c2cccc(O)c2C4=O)CC1 | – | – |
| 11.8 | 6.3 | CN(C)C1CCN(c2nc3cc(O)c4c(c3s2)C(=O)c2cccc(O)c2C4=O)CC1 | – | – |
| 4.5 | 6.5 | O=C1c2c(O)cccc2C(=O)c2c1c(O)cc1nc(N3CCN(CCO)CC3)sc21 | – | – |
| 4.3 | 5.4 | CCN1CCN(c2nc3cc(O)c4c(c3s2)C(=O)c2cccc(O)c2C4=O)CC1 | 30 | 30 |
